Literature values as cited in patent US20060280815A1, “Nutritional composition which promotes weight loss, burns calories, increases thermogenesis, supports energy metabolism and/or suppresses appetite” (priority 2004, published 2006).

Conditions: people with type 2 diabetes; acute abstention from caffeine

## Cn1c(=O)c2c(ncn2C)n(C)c1=O [caffeine]
  reduction of postprandial glucose levels: 21%
